Biological target: T1, ERα protein (HiBiT-tagged) in ESR1_HiBiT KI MCF7 cells (Homo sapiens, UniProt P03372)
T1 sequence (P03372 1-595): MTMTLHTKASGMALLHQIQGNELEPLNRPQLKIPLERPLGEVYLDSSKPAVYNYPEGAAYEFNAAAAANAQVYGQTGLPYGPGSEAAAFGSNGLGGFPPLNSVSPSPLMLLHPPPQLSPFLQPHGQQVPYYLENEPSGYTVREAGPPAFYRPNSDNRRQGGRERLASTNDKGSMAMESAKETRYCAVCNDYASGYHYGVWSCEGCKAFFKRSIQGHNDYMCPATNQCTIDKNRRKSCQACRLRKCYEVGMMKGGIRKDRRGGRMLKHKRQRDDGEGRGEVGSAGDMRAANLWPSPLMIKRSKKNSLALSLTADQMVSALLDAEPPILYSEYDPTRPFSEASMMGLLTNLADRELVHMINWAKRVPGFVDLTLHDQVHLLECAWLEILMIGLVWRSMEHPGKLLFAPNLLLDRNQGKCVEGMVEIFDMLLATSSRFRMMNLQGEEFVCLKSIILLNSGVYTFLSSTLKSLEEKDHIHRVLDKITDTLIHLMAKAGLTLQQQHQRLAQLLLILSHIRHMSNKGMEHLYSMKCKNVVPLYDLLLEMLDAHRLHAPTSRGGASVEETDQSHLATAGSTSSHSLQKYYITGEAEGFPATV
Assay: Nano Glo HiBiT Lytic Degradation Assay
Assay type: cell-based
Settings: 6 hours with compound, 14-point dose response 1:3, bell-shape curve fit, half-maximal effect of first Hill model, read-out: MCF7 ESR1 HiBiT - (DC50)
Method in brief: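 HiBiT-tagged endogenous ERα remaining in MCF7 knock-in cells was quantified by lytic luminescence after a 6 h treatment. DC50 values derive from a bell-shaped curve, taken at the first Hill component's half-maximal effect.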

Row | Compound | DC50 [nM]
1 | O=C1CC[C@H](N2Cc3cc(N4CCN(CC5CCN(c6ccc([C@H]7c8ccc(O)cc8CO[C@@]78CCCc7ccccc78)cc6)CC5)CC4)ccc3C2=O)C(=O)N1 (single isomer, unassigned) [Compound I-273] | 6
2 | O=C1CC[C@H](N2Cc3cc(N4CCN(CC5CCN(c6ccc(C7=C(c8ccccc8)CCc8cc(C(=O)O)ccc87)cc6)CC5)CC4)ccc3C2=O)C(=O)N1 [Compound I-7, (S)-5-(4-(4-((4-(2-(2,6-dioxopiperidin-3-yl)-1-oxoisoindolin-S-yl)piperazin-1-yl)methyl)piperidin-1-yl)phenyl)-6-phenyl-7,8-dihydronaphthalene-2-carboxylic acid] | ≥ 10000
3 | Cn1nc(C2CCC(=O)NC2=O)c2cccc(N3CCN(CC4CCN(c5ccc([C@@H]6c7ccc(O)cc7CC[C@@H]6c6ccccc6)cc5)CC4)CC3)c21 (stereo partly drawn) [Compound I-189, 3-(7-(4-((1-(4-((1R,2S)-6-hydroxy-2-phenyl-1,2,3,4-tetrahydronaphthalen-1-yl)phenyl)piperidin-4-yl)methyl)piperazin-1-yl)-1-methyl-1H-indazol-3-yl)piperidine-2,6-dione] | 2
4 | C[C@@H]1CN(CC2CCN(c3ccc([C@H]4c5ccc(O)cc5CC[C@H]4c4ccccc4)cc3)CC2)CCN1c1ccc2c(c1)CN([C@H]1CCC(=O)NC1=O)C2=O (single isomer, unassigned) [II-4] | 1140
5 | O=C1CC[C@H](N2Cc3cc(N4CCN(CCC5CCN(c6ccc([C@H]7c8ccc(O)cc8CC[C@H]7c7ccccc7)cc6)CC5)CC4)ccc3C2=O)C(=O)N1 [II-98] | ≥ 10000
6 | O=C1CC[C@H](N2Cc3cc(N4CCN(CC5CCN(c6ccc([C@H]7c8ccc(O)cc8CO[C@H]7c7ccc8c(c7)CCC8)cc6)CC5)CC4)ccc3C2=O)C(=O)N1 [Compound I-366, (S)-3-(5-(4-((1-(4-((3R,4S)-3-(2,3-dihydro-1H-inden-5-yl)-7-hydroxyisochroman-4-yl)phenyl)piperidin-4-yl)methyl)piperazin-1-yl)-1-oxoisoindolin-2-yl)piperidine-2,6-dione] | ≥ 10000
7 | C[C@]1(c2ccccc2)CCc2cc(O)ccc2[C@@H]1c1ccc(N2CCC(CN3CCN(c4ccc5c(c4)CN([C@H]4CCC(=O)NC4=O)C5=O)CC3)CC2)cc1 [Compound I-344, (S)-3-(5-(4-((1-(4-((1R,2S)-6-hydroxy-2-methyl-2-phenyl-1,2,3,4-tetrahydronaphthalen-1-yl)phenyl)piperidin-4-yl)methyl)piperazin-1-yl)-1-oxoisoindolin-2-yl)piperidine-2,6-dione] | 84
8 | Cc1ccc([C@H]2OCc3cc(O)ccc3[C@H]2c2ccc(N3CCC(CN4CCN(c5ccc6c(c5)CN([C@H]5CCC(=O)NC5=O)C6=O)CC4)CC3)cc2)cc1 [Compound I-354, (S)-3-(5-(4-((1-(4-((3S,4R)-7-hydroxy-3-(p-tolyl)isochroman-4-yl)phenyl)piperidin-4-yl)methyl)piperazin-1-yl)-1-oxoisoindolin-2-yl)piperidine-2,6-dione] | 0.3
9 | O=C1CCC(N2Cc3c(ccc(N4CCN(CC5CCN(c6ccc([C@@H]7c8ccc(O)cc8CC[C@@H]7c7ccccc7)cc6)CC5)CC4)c3F)C2=O)C(=O)N1 (single isomer, unassigned) [II-16] | 2
10 | Cc1ccc([C@H]2CC(F)(F)c3cc(O)ccc3[C@H]2c2ccc(N3CCC(CN4CCN(c5ccc6c(c5)CN([C@H]5CCC(=O)NC5=O)C6=O)CC4)CC3)cc2)cc1 (single isomer, unassigned) [Compound I-320, (S)-3-(5-(4-((1-(4-((1*S, 2*R)-4,4-difluoro-6-hydroxy-2-(p-tolyl)-1,2,3,4-tetrahydronaphthalen-1-yl)phenyl)piperidin-4-yl)methyl)piperazin-1-yl)-1-oxoisoindolin-2-yl)piperidine-2,6-dione] | 0.006
11 | O=C1CC[C@H](N2Cc3cc(N4CCN(CC5CCN(c6ccc([C@@H]7c8ccc(O)cc8CC[C@@H]7C7CCCCC7)nc6)CC5)CC4)ccc3C2=O)C(=O)N1 [Compound I-149, (S)-3-(5-(4-((1-(6-((1S,2R)-2-cyclohexyl-6-hydroxy-1,2,3,4-tetrahydronaphthalen-1-yl)pyridin-3-yl)piperidin-4-yl)methyl)piperazin-1-yl)-1-oxoisoindolin-2-yl)piperidine-2,6-dione] | 0.82
12 | O=C1CC[C@H](N2Cc3cc(N4CCN(CC5CCN(c6ccc([C@@H]7c8ccc(O)cc8CC[C@@H]7c7ccccc7F)cc6)CC5)CC4)ccc3C2=O)C(=O)N1 (single isomer, unassigned) [II-24] | 245
13 | O=C1CC[C@H](N2Cc3cc(N4CCN(C[C@@H]5CCCN(c6ccc([C@H]7c8ccc(O)cc8CC[C@H]7c7ccccc7)cc6)C5)CC4)ccc3C2=O)C(=O)N1 (single isomer, unassigned) [II-21] | 173
14 | O=C1CCC(N2Cc3cc(N4CCN(CC5CCN(c6ccc([C@H]7c8ccc(O)cc8CC[C@H]7c7cccnc7)cc6)CC5)CC4)ccc3C2=O)C(=O)N1 (single isomer, unassigned) [Compound I-108] | 17.3
15 | O=C1CC[C@H](c2ccc(N3CCC4(CCN(CC5CCN(c6ccc([C@@H]7c8ccc(O)cc8CO[C@@H]7c7ccccc7)cc6)CC5)C4)CC3)cc2)C(=O)N1 (single isomer, unassigned) [Compound I-389] | 0.28
16 | Cc1ccc([C@H]2OCc3cc(O)ccc3[C@H]2c2ccc(N3CCC(CN4CCN(c5ccc6c(c5)CN([C@H]5CCC(=O)NC5=O)C6=O)CC4)CC3)cc2)cc1F (single isomer, unassigned) [Compound I-355] | 0.27
17 | O=C1CC[C@H](N2Cc3cc(N4CCN(CC5CCN(c6ccc([C@@H]7c8ccc(O)cc8CO[C@@H]7CC7CCCC7)cc6)CC5)CC4)ccc3C2=O)C(=O)N1 (single isomer, unassigned) [Compound I-232] | 0.92
18 | O=C1CC[C@H](N2Cc3cc(N4CCN(C[C@H]5CCN(c6ccc([C@@H]7c8ccc(O)cc8CC[C@@H]7c7ccccc7)cc6)C5)CC4)ccc3C2=O)C(=O)N1 (single isomer, unassigned) [II-13] | 18
19 | C[C@H]1C[C@@H](c2ccccc2)[C@@H](c2ccc(N3CCC(CN4CCN(c5ccc6c(c5)CN([C@H]5CCC(=O)NC5=O)C6=O)CC4)CC3)cc2)c2ccc(O)cc21 (single isomer, unassigned) [Compound I-331] | ≥ 10000
20 | O=C1CC[C@H](N2Cc3cc(N4CCN(CC5CCN(c6ccc([C@@H]7c8ccc(O)cc8CC[C@@H]7c7ccccn7)cc6)CC5)CC4)ccc3C2=O)C(=O)N1 [Compound I-115] | 0.63
21 | O=C1CC[C@H](N2Cc3cc(N4CCN(CC5CCN(c6ccc([C@@H]7c8ccc(O)cc8CO[C@@H]7C7CCC7)cc6)CC5)CC4)ccc3C2=O)C(=O)N1 [Compound I-245, (S)-3-(5-(4-((1-(4-((3R,4R)-3-cyclobutyl-7-hydroxyisochroman-4-yl)phenyl)piperidin-4-yl)methyl)piperazin-1-yl)-1-oxoisoindolin-2-yl)piperidine-2,6-dione] | 0.23
22 | O=C1CC[C@H](N2Cc3cc(N4CCN(CC5CCN(c6ccc([C@@H]7c8ccc(O)cc8CC[C@@H]7c7ccccc7)cn6)CC5)CC4)ccc3C2=O)C(=O)N1 [II-80] | 0.68
23 | O=C1CCC(N2Cc3cc(N4CCC(CN5CCC(c6ccc([C@H]7c8ccc(O)cc8CC[C@H]7c7ccccc7)cc6)CC5)CC4)ccc3C2=O)C(=O)N1 (single isomer, unassigned) [II-61] | 0.08
24 | Cn1nccc1[C@@H]1CCc2cc(O)ccc2[C@@H]1c1ccc(N2CCC(CN3CCN(c4ccc5c(c4)CN([C@H]4CCC(=O)NC4=O)C5=O)CC3)CC2)cc1 (single isomer, unassigned) [Compound I-25] | 0.02
25 | Cn1ccc([C@@H]2CCc3cc(O)ccc3[C@@H]2c2ccc(N3CCC(CN4CCN(c5ccc6c(c5)CN([C@H]5CCC(=O)NC5=O)C6=O)CC4)CC3)cc2)n1 [Compound I-31] | ≥ 10000
26 | O=C1CC[C@H](N2Cc3cc(N4CCN(CC5CCN(c6ccc([C@@H]7c8ccc(O)cc8CO[C@@H]7c7ccc8c(c7)CC8)cc6)CC5)CC4)ccc3C2=O)C(=O)N1 (single isomer, unassigned) [Compound I-363] | 0.17
27 | O=C1CC[C@H](N2Cc3cc(N4CCN(CC5CCN(c6ccc([C@@H]7c8ccc(O)cc8CO[C@@]78CCCc7ccccc78)cc6)CC5)CC4)ccc3C2=O)C(=O)N1 [Compound I-76, (S)-3-(5-(4-((1-(4-((3S,4R)-7-hydroxy-3′,4′-dihydro-2′H-spiro[isochromane-3,1′-naphthalen]-4-yl)phenyl)piperidin-4-yl)methyl)piperazin-1-yl)-1-oxoisoindolin-2-yl)piperidine-2,6-dione] | 0.21
28 | C[C@H]1Cc2cc(O)ccc2[C@@H](c2ccc(N3CCC(CN4CCN(c5ccc6c(c5)CN([C@H]5CCC(=O)NC5=O)C6=O)CC4)CC3)cc2)[C@H]1c1ccccc1 [Compound I-174, (S)-3-(5-(4-((1-(4-((1R,2S,3S)-6-hydroxy-3-methyl-2-phenyl-1,2,3,4-tetrahydronaphthalen-1-yl)phenyl)piperidin-4-yl)methyl)piperazin-1-yl)-1-oxoisoindolin-2-yl)piperidine-2,6-dione] | 18
